Data as given in patent US20060003893A1, “Controlled release fertilizers employing ureaform compounds and processes for making same” (priority 2004, published 2006).

Test: Controlled Release Soil Test (irrigated soil burial test)
Type: physicochemical
Description: To measure the relative solubilities of the products in soil, an irrigated soil burial test (“Controlled Release Soil Test”) was devised such that granules could be retrieved for measurement of their nitrogen content. The following is a description of the test.
Controlled Release Soil Test
Procedure for Controlled Release Soil Test
• 1. Screen the sample to obtain −6+7 Tyler mesh granules for the test. • 2. Label a freezer container with the test description. • 3. Place the freezer container on the 1200 g balance and tare out. • 4. Place 300 g of potting soil with a 40% moisture content into the container and record the weight. • 5. Over the soil place two (2) pieces of fiberglass mesh with 14 meshes to the inch and 1/16 inch openings. • 6. Tare out the container with the soil and fiberglass mesh screens. • 7. Spread 5 grams of −6+7 Tyler mesh granules over the screen in a single layer and record the weight. • 8. Place a large square of fiberglass mesh over the granules, with a stainless steel screen cut to fit over it, so that the shape of the container has been mirrored. • 9. Once this is shaped, tare out the container and add 150 g of soil and record the weight. • 10. Repeat this process for each sample to be tested (in triplet if possible). • 11. After all containers are completed, fill a mist spray bottle with de-ionized water and prime. • 12. […]

In the case of `NC(N)=O` [UREA, urea], the “time to go into solution” value was no more than 9 h and the “Nitrogen Retained (%) 9 Hours” value (9 hours) was 0%.
